Results taken from PMC9101087, “A Sensitive LC-MS/MS Method for the Simultaneous Determination of Two Thia-Analogous Indirubin N-Glycosides and Indirubin-3′-Monoxime in Plasma and Cell Culture Medium” (Molecules, 2022).

Experiment: Quantification of KD87 in plasma of mice after intraperitoneal injection
Format: in vivo
Settings: male, NSG (NOD.Cg-Prkdc^scid Il2rg^tm1Wjl/SzJ), mouse, ip, 20 mg/kg, 20 mg/kg intraperitoneal, mean ± SD n = 8
Procedure: To apply the method validated for plasma, an animal experiment was performed in which KD87 (20 mg/kg body weight) was injected intraperitoneally into NOD.Cg-Prkdc^scid Il2rg^tm1Wjl/SzJ (NSG) mice followed by determination of the plasma concentration of KD87 at two fixed time points, i.e., 30 and 60 min, after administration. For this initial investigation, KD87 was selected because it has shown viability-reducing effects on a large panel of tumor cells both in the present study and in a previous study, making it a good candidate for future in vivo experiments.
Before starting plasma extraction and protein precipitation, 10 µL of the sample plasma was mixed with 40 µL of human plasma. After appropriate sample preparation by protein precipitation or liquid-liquid extraction, KD87 was successfully detected and quantified by LC-MS/MS. Here, for each blood draw, two separate plasma aliquots were extracted or precipitated and subsequently measured. In addition, the MRM transitions of the aglycone KD88 were monitored during the measurement to observe possible deglycosylation of KD87. […] Individual concentrations are presented for each mouse separately (Figure 5A,B) and as averages of the four treated mice (Figure 5C). For protein precipitation, a concentration of 1.89 ± 0.30 µM was determined 30 min after intraperitoneal injection, increasing to 2.93 ± 0.36 µM after 60 min (Figure 5C). Similar values are obtained after liquid-liquid extraction of plasma sample, which yielded a concentration of 2.19 ± 0.32 µM and 3.46 ± 0.50 µM after 30 and 60 min, respectively (Figure 5C).
Figure 5 Quantification of KD87 in plasma of mice 30 and 60 min after intraperitoneal injection of KD87 (20 mg/kg body weight). Prior to sample processing, mouse plasma was diluted 1:5 with human plasma. Shown are the individual values of KD87 in mouse plasma (A) after protein precipitation and (B) after liquid-liquid extraction, as well as (C) the average KD87 concentration values of all four mice for both processing methods. (A,B): The values of two separately processed plasma aliquots of one blood sample per mouse are shown. (C): The bar chart summarizes the results of measurements from panels (A,B), expressed as mean ± standard deviation (SD) of n = 8 values per column.
For experiments, four 13-week-old male NSG mice with a body weight between 20 and 30 g were used. KD87 was administered via intraperitoneal injection at a dose of 20 mg/kg body weight. For this purpose, KD87 was dissolved in ethanol and Cremophore EL (1:1) to a concentration of 6 mg/mL, and diluted further in sterile saline solution (NaCl 0.9%, B. Braun Melsungen AG, Melsungen, Germany) to a final concentration of 2 mg/mL. Per mouse, a total volume of 10 mL/kg of body weight was administered. […]

concentration at 30 min (liquid-liquid extraction): 2190 ± 320 nM | concentration at 30 min (protein precipitation): 1890 ± 300 nM | concentration at 60 min (liquid-liquid extraction): 3460 ± 500 nM | concentration at 60 min (protein precipitation): 2930 ± 360 nM
Structure (SMILES): O=C1/C(=C2/C(=O)N([C@@H]3O[C@H](CO)[C@@H](O)[C@H](O)[C@H]3O)c3ccccc32)Sc2ccccc21 [KD87, 3-[3′-oxo-benzo[b]thiophen-2′-(Z)-ylidene]-1-(β-D-glucopyranosyl)-oxindole]
